Measurements: US10131558B1, “Compositions, methods, and/or systems for managing sulfide” (priority 2016, dated 2018)
Where “and” joins values, the source holds several entries; their conditions need not be identical. Identical values can stand only once.

Assays:
[1] = SMBSC pilot demonstration, lagoon spray system; details: Trial 1, samplings T2-T5
Source text: The exemplary system and method was designed to utilize 1.7 million gallons per day of the 35 to 40 million gallons of high strength wastewater within the lagoon as a carrier for treatment chemistry. Flow into the lagoon varied. Influent was mostly high organic strength wastewater. A typical daily flow rate approximated 500,000 gallons.
The utilized system and method sought to efficiently cover as much of the lagoon surface with treated wastewater containing excess quantities of treatment chemistry as practically possible. For spray nozzles, the system and method utilized 100 series Big Gun sprinklers (available from Nelson Irrigation Corporation of Walla Walla, Wash.) oriented in a pattern to assure maximum coverage of targeted surface area of the lagoon. […] The pressure varied depending on the demand of the spray nozzles and surface coverage demand. Further, the effectiveness relied somewhat on delivery of sufficient volume of treated wastewater containing excess treatment chemistry to the surface of the lagoon to adequately suppress sulfide at or near the surface of the lagoon. […] Treatment chemistry for the returned treated wastewater was dosed to treat sulfide within the uptake wastewater and over dosed with added treatment chemistry to accommodate the expected need for treatment within the surface water of the receiving lagoon. […] This dosage application assumed these ratios for each hour of continuous treatment.
The method used for this pilot study for dosing was estimated by taking surface and mid-depth samples of the untreated lagoon and testing for sulfide.
Station D1 referred to a dam where water flowed down through the dam into the remaining run of the retention lagoon.

[2] = Full scale lagoon treatment system (spray)
Source text: The system was designed to treat sulfide and recirculate sulfide-free wastewater from the lagoon in a continuous manner and reuse the treated wastewater in such a manner as to gain substantially complete control of hydrogen sulfide escaping to the atmosphere. […] The capping of the lagoon was accomplished by spray applying sulfide-free treated wastewater using a spray application system specifically designed to gain complete or nearly complete coverage of the surface area of the lagoon. Importantly, the spray application system imparted minimal mixing to the untreated surface of the lagoon. Any significant mixing of the surface water within the lagoon could be problematic for hydrogen sulfide release. Gently spray-applying sulfide-free water over the lagoon served to effectively cap the lagoon with minimal mixing, thus preventing gaseous sulfide from escaping to the atmosphere. Further, by assuring that the treated wastewater returning to the lagoon surface contained excess oxidation treatment chemicals, any fugitive sulfide that might have risen through the cap could be mitigated.
The water proceeding eastward turns north at the end of the lagoon and travelling back westward where it is pumped out of the lagoon at the northwest end.
This system is primarily driven by a large electrically powered Cornell pump denoted by the “Pump” box in FIG. 5. The pump sits on a 40′ wide elevated dyke that runs down the center of the lagoon. Water is pumped out of the northwest side of the lagoon via a 12″ HDPE “Pump Intake” pipe and flows through the Cornell pump and then down the dyke in the center of the lagoon via an 8″ HDPE main pipe. […] These injection locations are designated by the “1” and “2” circles in FIG. 5. T valves were installed into the 8″ main line, redirecting a portion of the water from the 8″ main pipe out to each of 27 different floats via 2″ HDPE piping. The Nelson F100 series Big Gun spray irrigation heads were mounted on the floats and directly connected to the 2″ HDPE piping. Around 47 PSI of water pressure was constantly maintained to allow sufficient working pressure for each of the 27 spray irrigation heads. The chemical being dosed into the line via the Verdeflex pumps was carefully calculated to ensure sufficient Ferric Gluconate and Hydrogen Peroxide were present in the line to not only ensure substantially complete destruction of all sulfide in the line but to provide a surplus of chemicals for additional treatment upon contact with any sulfides in the pond. […]
Prior to treatment initiation, samples were taken starting on Mar. […] A quantity of 45 gallons per hour (540 gallons per 12 hour period) of 50% Peroxide and 20 gallons per hour of Ferric Gluconate (240 gallons per 12 hour period) were pumped into the lagoon via the sprayer system.

[3] = test system: total heterotrophic bacteria; assay: Disinfection of wastewater using chelated iron compounds; type: cell-based; details: 30 min, raw average 18,188 CFUs
Description: The clarified supernatant was then pored off of the top of the settled solids within the sample. The supernatant was then mixed and four samples were collected to determine untreated heterotrophic bacteria counts. […] were dissolved in distilled water at 0.4334M. Ferric chloride was added in amounts to achieve saturation of chelant sites on the respective chelants. […] Twenty individual liter samples of supernatant were then decanted from the well-mixed wastewater sample for testing. Four chelated iron products with peroxide were tested at two test concentrations and compared to samples receiving peroxide only and iron chelate only. […] Samples were then decanted to sterile sample containers containing sodium thiosulfate to stop the oxidation process and preserve the sample. Samples were then placed in a refrigerator until all samples were finished. Samples were packaged in a standard cooler with ice packs and sent via overnite delivery to ProChem Labs in Lynchburg, Va. for analysis for total heterotrophic bacteria counts.

[4] = Full scale lagoon treatment system using eductors; details: across all stations, eductor system, September 2016
Description: Due to concerns about fugitive airborne spray entering the environment and, potentially, drifting onto a nearby public road, SMBSC management requested an underwater eductor system be installed to replace the Nelson spray irrigation system described previously. Therefore, a full scale trial using a commercially available surface chemical application system and method was tested at the SMBSC. The objective of the test was to determine if a system designed to apply oxidation treatment chemicals just below the surface of the large wastewater lagoon at SMBSC was as effective as the spray system that minimized surface mixing. It was surmised that the system would achieve similar results to the spray application approach due to minimal disturbance to lagoon subsurface wastewater. The eductor system slowly spun in a circular pattern similar to the circular pattern of the spray system. The Serfilco eductor system pulled wastewater from the contaminated lagoon using the identical system of treatment used for the Nelson spray system. The only variation was the application mechanism of eduction versus spray. The eduction system relied on the force of the wastewater flowing back into the eductor distribution arms to force the circular motion of the arms distributing oxidation chemicals. All aspects of the system were the same except for the distribution system. […]

[5] = Treatment of sulfides in municipal wastewater using ferric chelants and ozone; details: ozone ~13.4 ppm, 4 ppm ferric chelant where used; for sulfide remaining: start 13.70
Source text: The raw wastewater received a dose of 4 ppm of each of the four ferric chelants (mass calculated as chelant) just prior to addition of ozone.
Ozone addition was accomplished using an ozone generator from Ozone Solutions, Sioux Center, Iowa. The generator was capable of generating up to 2 grams per hour of ozone. Injection of ozone into the wastewater was accomplished using an injection system from Ozone Solutions called the H2O-Mini. The unit is designed to treat from 1.5 to 5.7 liters per minute of wastewater. The unit was set up to deliver 6.7 mg/minute of dissolved ozone (assumed the 80% efficiency of dissolution noted by the manufacturer) to wastewater passing the injection nozzle within the H2O-mini. Each test was designed for maximum wastewater flow through the H2O-mini (5.7 liters/min).
An objective of the study will be to treat most, but not all, of the sulfide present within the individual test samples in order to determine which treatment was more efficient than the others.
Samples were taken over twenty minutes of contact time from the recirculation vessel after ozonation. For each of the four ferric chelant studies, chelants were added to the wastewater recirculation vessels just prior to starting the injection of ozone and recirculation of the liquids. The injection of ozone was applied over the prescribed period and sampled as before in the ozone only experiment.

[6] = Treatment of sulfides in municipal wastewater using ferric chelants and hydrogen peroxide
Description: Total sulfides were tested for using Standard Methods 4500-S^2− D with a Hach Chemical Company (of Loveland, Colo.) DR 2000 Spectrophotometer and reagents from Hach specific for this particular test. To keep total sulfides within the range of the test, samples were diluted with distilled water prior to conducting the test as per Hach instructions.
Tests for total sulfide were conducted after 5, 15, and 30 minutes of contact time on each of the seven liter test jars.

[7] = 10 min; 33 mg/l H2O2 (+44 μg/l VTX as total iron in the combination)
Description: This step was seen to minimize the amount of natural oxidation of added sulfide by sulfide-oxidizing bacteria present in the biosolids. Sodium hydrosulfide was added to 35 liters of wastewater to achieve a starting total sulfide concentration of ˜10 mg/l sulfide. The pH was adjusted within the aquarium to a pH of 7.0 using a dilute solution of hydrochloric acid.
The Odalog was affixed using a ring stand to achieve a one centimeter gap between the intake of the Odalog and the surface of the aquarium. […] Wastewater was pulled from near the bottom of the aquarium using a Watson-Marlow Peristaltic Pump capable of delivering 0.001-190 mls/minute. […] The volume of the line prior to discharge equated to ˜100 milliliters. A delivery spray system was mimicked by drilling small holes (0.35 mm) into 0.25 inch tubing distributed evenly above the aquarium. […] A filtration devise was installed in-line to minimize particle clogging with the intake in the tank above the settled biosolids to aid in this process.
No catalyst was added along with the peroxide in Treatment 3.
Testing for total sulfide in solution was conducted prior to beginning treatment at three depths.

[8] = Treatment of groundwater contaminated with BTEX and MtBE; details: 250 mL groundwater; 1 mL 35% H2O2, plus 1 mL Fe-GLC in the combination; untreated 171 ppb
[9] = as above; details: 250 mL groundwater; 1 mL 35% H2O2, plus 1 mL Fe-GLC in the combination; untreated 27 ppb
[10] = as above; details: 250 mL groundwater; 1 mL 35% H2O2, plus 1 mL Fe-GLC in the combination; untreated 56 ppb
[11] = as above; details: 250 mL groundwater; 1 mL 35% H2O2, plus 1 mL Fe-GLC in the combination; untreated 34 ppb
[12] = as above; details: 250 mL groundwater; 1 mL 35% H2O2, plus 1 mL Fe-GLC in the combination; untreated 159 ppb
[13] = Treatment of 2,4-D with hydrogen peroxide alone against hydrogen peroxide/Fe-gluconate; details: 250 mL; 200 microliters 50% hydrogen peroxide, plus 200 microliters Fe-GLC in the combination; after four hours; untreated 130 ppb
Description: The dissolved sodium bicarbonate increased the alkalinity of the water somewhat, causing the water to mimic a natural water source. Two hundred fifty milliliters of this solution was distributed into three 500 mL Erlenmeyer flasks. […] The flasks were then covered with parafilm and swirled to facilitate mixing of the solution. After four hours a sample from each flask was taken to the pesticide lab at Virginia Tech and analyzed by gas chromatography (GC) for 2,4-D. The findings were as follows: […]

[14] = Vapor suppression spray test, hydrogen sulfide above test water; details: no treatment 18
Description: A solution of ferric glucontate treatment was prepared using 2.0 M ferric gluconate solution along with distilled water to achieve a final concentration of ferric gluconate at 5 mg/ml, as ferric iron.
A five gallon bucket containing five liters of de-ionized water was infused with 10 parts per million of total sulfide using technical grade anhydrous Sodium Hydrosulfide. The pH of the water was then adjusted to a pH of 7.0 using a dilute solution of hydrochloric acid.
After cleaning the bucket for control testing for each study, five additional liters of de-ionized water was added and the same quantity of sulfide was infused into the fresh water and the pH adjusted to 7.0.

Fecal Coliform = assay: Disinfecting wastewater, peroxide alone vs Fe-GLC and peroxide; type: cell-based; details: 20 mg H2O2 (50 microliters 35%), plus 50 microliters Fe-GLC in the combination; after twenty minutes; control 2200
Source text: A sample of wastewater was collected from the influent of the chlorine contact chamber of the York River Wastewater Treatment Plant in Yorktown, Va. The samples were divided equally into three clean 500 milliliter sample containers from the single sample taken. The first sample served as a control and was set aside. […] Each sample was capped and shaken briefly to mix the contents. After twenty minutes, sub-samples were taken from each vessel and pored into fecal coliform sample containers for analysis at the Hampton Roads Sanitary District lab.

[15] = after 2 days; cited from earlier work
[16] = spray system on, April 2016, date by row, same dosage

ferric gluconate [Fe-GLC]
Aqueous Sulfide, location 1S ([1]; same dosage, T1 before treatment 1.35): 0 ppm and 0.00 ppm | Gaseous Sulfide downwind at lagoon edge, Station 2 [1]: 0.00 ppm | Gaseous Sulfide downwind at lagoon edge, Station 3 [1]: 0.00 ppm | average sulfide measurement ([2]; one month, five sampling locations, spray system, untreated average 1.06 mg/l): 0.06 mg/L | Aqueous Sulfide, Station 1 (surface) [2, 16]: 0.00 mg/L | Aqueous Sulfide, Station 4 (surface) [2, 16]: 0.00 mg/L | sulfide in wastewater spray upon exiting the spray nozzles ([2]; with proper dosage of oxidation chemicals): 0.00 mg/L | Test 1 CFUs/ml 19.8 ppm H2O2 6 ppm Fe-Chelant [3]: 98 CFUs/ml | Test 2 CFUs/ml 39.6 ppm H2O2 12 ppm Fe-Chelant [3]: 28 CFUs/ml | Test 3 CFUs/ml 12 ppm Fe-Chelant ([3]; chelant alone, no H2O2): 22,600 CFUs/ml | average sulfide measurement [4]: 2.14 mg/L | Overall total percentage of sulfide reduction [5]: 90% | Overall total percentage of sulfide reduction ([5]; listed as Fe-Gluconate): 90% | sulfide remaining ([5]; 5 min contact): 3.40 ppm | sulfide remaining ([5]; 10 min contact): 2.80 ppm | sulfide remaining ([5]; 20 min contact): 1.40 ppm | sulfide reduction after 15 minutes ([6]; 20 ppm chelant and 105.8 ppm hydrogen peroxide): 86.8%

OO [H2O2, hydrogen peroxide]
H2S Above H2O [7]: 17 PPM | Total Sulfide 1 CM Depth [7]: 8.5 mg/L | Total Sulfide 2 CM Depth [7]: 9.1 mg/L | Total Sulfide 3 CM Depth [7]: 9.3 mg/L | Toluene after treatment [8]: 55.7 ppb | MtBE after treatment [9]: 15.7 ppb | Benzene after treatment [10]: 15.1 ppb | Ethylbenzene after treatment [11]: 13.0 ppb | Percentage of Sulfide Treated After 30 Minutes ([6]; 1.5:1.0 peroxide to sulfide, Dose 3, 38.7 ppm H2O2 only (control run of the chelant named in the row)): 59.0 and 46.5 and 56.3 and 57.0 and 55.5 and 54.7 | Percentage of Sulfide Treated After 30 Minutes ([6]; 2.5:1.0 peroxide to sulfide, Dose 3, 105.8 ppm H2O2 only (control run of the chelant named in the row)): 69.0 and 69.5 and 67.8 and 66.4 and 44.4 and 69.3 and 70.2 | sulfide reduction after 15 minutes, average ([6]; hydrogen peroxide alone, 2.5:1.0 peroxide to sulfide): 52% | sulfide treatment after 15 minutes ([6]; peroxide alone, 37.8 ppm level): 42.9% | Xylenes after treatment [12]: 67.0 ppb | 2,4-D [13]: 230 ppb | H2S reading after 10 minutes ([14]; 1 ml of 15 mg/ml H2O2): 6 ppm | H2S reading after 10 minutes ([14]; 3 ml of 15 mg/ml H2O2): 4 ppm | H2S reading after 10 minutes ([14]; 5 ml of 15 mg/ml H2O2 sprayed on 5 L water with 10 ppm total sulfide, pH 7.0): 3 ppm | Fecal Coliform (Fecal Coliform): 53 cfu/100 mL

O=C([O-])[C@H](O)[C@@H](O)[C@H](O)[C@H](O)CO.[Na+] [Sodium gluconate, sodium gluconate]
readily biodegradable [15]: 98%
